Experimental data: the supplement of paper PMC10307832

How the values were obtained:
Experiment in all cases: relative viability (nuclei count vs DMSO), 5 days (fraction); higher = more cells survive
[1] = compound: CC1=C(C(=NN1)C)CC2=C(C3=C(S2)N(C(=O)N(C3=O)C)CC(C)C)C(=O)N4C[C@@H](CO4)O + Cc1cc(Nc2cc(N3CCN(C)CC3)nc(Sc3ccc(NC(=O)C4CC4)cc3)n2)n[nH]1 [Tozasertib] (partner 0.1 µM)
Summary of the method: (§1)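 One day after seeding in 1536-well plates, lung cancer cell lines were dosed by pin tool. Dosing was either single-drug or a fixed anchor-drug dose plus five library-drug doses (not always all listed) in √10 steps. After 5 days, nuclei were stained in one fix-and-stain step and counted on 4× images, and relative viability is the nuclei count of treated wells over that of vehicle wells, given as the median of duplicate plates.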

[2] = compound: Cc1ccccc1C(C(=O)NC1CCCCC1)N(C(=O)Cn1ccnc1C)c1cccc(F)c1 [IDH-C35] + CC(=O)c1c(C)c2cnc(Nc3ccc(N4CCNCC4)cn3)nc2n(C2CCCC2)c1=O [Palbociclib] (partner 0.5 µM)
Summary of the method: as §1

[3] = compound: Cc1ccccc1C(C(=O)NC1CCCCC1)N(C(=O)Cn1ccnc1C)c1cccc(F)c1 [IDH-C35] + CC1(C)CCC(c2ccc(Cl)cc2)=C(CN2CCN(c3ccc(C(=O)NS(=O)(=O)c4ccc(N[C@H](CCN5CCOCC5)CSc5ccccc5)c(S(=O)(=O)C(F)(F)F)c4)cc3)CC2)C1 [Navitoclax] (partner 0.5 µM)
Summary of the method: as §1

[4] = compound: Cc1ccccc1C(C(=O)NC1CCCCC1)N(C(=O)Cn1ccnc1C)c1cccc(F)c1 [IDH-C35] + C[C@]1(O)C[C@@H](c2nc(-c3ccc4ccc(-c5ccccc5)nc4c3)c3c(N)nccn32)C1 [Linsitinib] (partner 1 µM)
Summary of the method: as §1

Cell Line	relative viability ([1]; first compound 0.0025 µM)	relative viability ([1]; first compound 0.007906 µM)	relative viability ([1]; first compound 0.025 µM)	relative viability ([1]; first compound 0.07906 µM)	relative viability ([1]; first compound 0.25 µM)	relative viability ([2]; first compound 0.08 µM)	relative viability ([2]; first compound 0.253 µM)	relative viability ([2]; first compound 0.8 µM)	relative viability ([2]; first compound 2.53 µM)	relative viability ([2]; first compound 8 µM)	relative viability ([3]; first compound 0.08 µM)	relative viability ([3]; first compound 0.253 µM)	relative viability ([3]; first compound 0.8 µM)	relative viability ([3]; first compound 2.53 µM)	relative viability ([3]; first compound 8 µM)	relative viability ([4]; first compound 0.08 µM)	relative viability ([4]; first compound 0.253 µM)	relative viability ([4]; first compound 0.8 µM)	relative viability ([4]; first compound 2.53 µM)	relative viability ([4]; first compound 8 µM)
NCI-H3122	0.37	0.242	0.376	0.414	0.485	0.183	0.178	0.186	0.187	0.182	1.03	0.997	0.96	1.01	1.08	0.991	0.971	0.972	1.01	1.02
COR-L23	0.155	0.163	0.172	0.18	0.163	0.31	0.294	0.305	0.311	0.315	1.17	0.907	0.977	0.979	1.05	0.828	0.896	0.913	0.889	0.886
NCI-H2087	0.275	0.233	0.281	0.219	0.33	0.225	0.211	0.24	0.308	0.228	1.13	1.02	0.896	0.867	0.999	1.03	0.826	0.744	0.87	0.881
LC-2-ad	0.53	0.462	0.494	0.44	0.426	0.527	0.476	0.531	0.49	0.494	0.544	0.589	0.467	0.427	0.331	0.867	0.829	0.774	0.875	0.886
NCI-H1915	0.443	0.436	0.446	0.446	0.45	0.51	0.527	0.506	0.556	0.529	0.772	0.753	0.759	0.729	0.767	1.13	1.12	1.1	1.07	1.09
NCI-H1793	0.453	0.28	0.327	0.271	0.24	0.273	0.303	0.356	0.327	0.322	0.549	0.446	0.444	0.456	0.608	0.908	0.808	0.859	0.85	0.773
NCI-H2023	0.332	0.362	0.356	0.412	0.327	0.398	0.34	0.378	0.384	0.357	1.09	1.01	0.979	0.962	1.1	0.719	0.612	0.712	0.646	0.557
COR-L 105	0.343	0.355	0.369	0.27	0.328	0.417	0.413	0.41	0.407	0.401	1.01	1.04	0.64	0.899	0.569	1.01	1.24	0.854	1.01	0.836
RERF-LC-KJ	0.461	0.529	0.469	0.485	0.492	1.08	1.03	0.991	1.1	1.09	0.901	0.735	1.02	1.25	0.832	0.873	0.861	0.871	0.906	0.904
LXF-289	0.205	0.213	0.18	0.186	0.22	0.574	0.584	0.591	0.604	0.583	0.968	0.931	0.961	0.896	0.987	0.94	0.971	0.936	0.949	0.956
PC-14	0.593	0.549	0.525	0.614	0.598	0.515	0.511	0.484	0.573	0.441	1.11	1.03	0.966	1.04	0.98	0.967	0.939	0.938	0.95	0.862
NCI-H1666	0.599	0.661	0.592	0.806	0.633	0.678	0.674	0.607	0.682	0.645	1.03	0.977	0.961	1.07	0.881	0.775	0.79	0.888	0.904	0.941
NCI-H2085	0.723	0.622	0.76	0.72	0.669	0.448	0.476	0.495	0.492	0.456	1.21	1.25	1.15	1.14	1.21	0.807	0.815	0.922	0.992	0.846
NCI-H1734	0.309	0.248	0.25	0.234	0.259	0.359	0.33	0.352	0.325	0.305	0.9	0.849	0.827	0.796	0.791	0.891	0.862	0.839	0.772	0.833
NCI-H2126	0.923	0.835	0.832	0.788	0.901	0.349	0.362	0.333	0.351	0.359	0.906	0.864	0.849	0.866	0.857	0.765	0.667	0.712	0.726	0.703
EMC-BAC-2	0.268	0.296	0.272	0.3	0.317	0.522	0.505	0.563	0.543	0.497	1.13	1.12	1.15	1.12	1.14	0.797	0.799	0.798	0.777	0.812

Cell Line	relative viability ([1]; first compound 0.0025 µM)	relative viability ([1]; first compound 0.007906 µM)	relative viability ([1]; first compound 0.025 µM)	relative viability ([1]; first compound 0.07906 µM)	relative viability ([1]; first compound 0.25 µM)	relative viability ([2]; first compound 0.08 µM)	relative viability ([2]; first compound 0.253 µM)	relative viability ([2]; first compound 0.8 µM)	relative viability ([2]; first compound 2.53 µM)	relative viability ([2]; first compound 8 µM)	relative viability ([3]; first compound 0.08 µM)	relative viability ([3]; first compound 0.253 µM)	relative viability ([3]; first compound 0.8 µM)	relative viability ([3]; first compound 2.53 µM)	relative viability ([3]; first compound 8 µM)	relative viability ([4]; first compound 0.08 µM)	relative viability ([4]; first compound 0.253 µM)	relative viability ([4]; first compound 0.8 µM)	relative viability ([4]; first compound 2.53 µM)	relative viability ([4]; first compound 8 µM)
NCI-H1993	0.559	0.522	0.546	0.508	0.572	0.649	0.504	0.654	0.617	0.666	0.943	0.878	0.919	1.1	1.13	0.758	0.776	0.817	0.745	0.798
NCI-H520	0.406	0.433	0.432	0.445	0.407	0.206	0.268	0.215	0.225	0.23	1.02	1.15	1.07	0.933	1.21	0.915	0.969	1	0.888	0.907
NCI-H647	0.2	0.265	0.269	0.189	0.322	0.47	0.433	0.399	0.347	0.397	1.26	1.18	0.916	1.04	1.12	1.03	1.29	1.18	1.1	1.1
SK-LU-1	0.3	0.266	0.251	0.256	0.278	0.47	0.387	0.366	0.391	0.418	0.788	0.682	0.804	1.01	0.652	0.999	1.03	1.07	1.22	1.1
NCI-H2009	0.751	0.695	0.779	0.829	0.745	0.25	0.28	0.32	0.227	0.147	1.22	1.16	1.12	1.17	1.16	1.18	1.24	1.16	1.23	1.14
LOU-NH91	0.723	0.674	0.709	0.792	0.838	0.553	0.558	0.54	0.551	0.519	0.69	0.78	0.722	0.635	0.735	0.944	0.998	0.968	0.927	0.973
NCI-H2405	0.697	0.729		0.577	0.676	0.538	0.512	0.525	0.561	0.525	0.926	0.981	0.918		0.76	0.974	0.957	0.928		0.907
LCLC-97TM1	0.207	0.277	0.219	0.209	0.285	0.192	0.22	0.213		0.27	0.4	0.474	0.367		0.35	0.209	0.194	0.179		0.193
NCI-H727	0.676	0.788	0.696	0.513	0.513	0.671	0.663	0.673	0.66	0.574	0.377	0.429	0.371	0.399	0.35	0.202	0.248	0.328	0.249	0.254
H3255	0.803	0.768	0.657	0.56	0.59	0.315	0.281	0.337	0.305	0.326	0.577	0.543	0.495	0.606	0.636	0.981	0.915	1.01	0.877	0.881
SK-MES-1	0.904	0.983	0.872	1.05	0.908	0.307	0.286	0.301	0.317	0.271	1.18	1.03	1.28	1.14	1.27	1.15	0.986	1.05	0.957	0.99
NCI-H1437	0.399	0.409	0.408	0.409	0.438	0.346	0.313	0.284	0.316	0.294	1.08	1.07	1.08	1.19	0.975	0.998	1.14	0.989	1.14	1.03
LU99A	0.24	0.285	0.279	0.274	0.283	0.38	0.418	0.394	0.398	0.403	0.702	0.814	0.871	0.925	0.781	0.569	0.536	0.506	0.593	0.6
HCC-827	0.475	0.437	0.393	0.428	0.397	0.475	0.483	0.397	0.562	0.472	0.975	0.997	1.05	0.949	1.03	0.99	0.889	0.98	0.837	1
LK-2	0.19	0.224	0.175	0.198	0.182	0.558	0.717	0.683	0.746	0.74	0.88	0.834	0.866	0.911	0.903	0.679	0.465	0.43	0.746	0.619
HCC-366	0.491	0.11	0.153	0.114	0.109	0.374	0.399	0.381	0.38	0.321	0.937	1.13	1.03	0.981	1.01	0.619	0.647	0.553	0.601	0.606
